Measured values published in the NIST ThermoML archive (doi:10.1016/j.tca.2013.09.034).

Experiment: mn = molality of the nth substance listed, in mol/kg
Details: 101 kPa, Liquid; for speed of sound: Sing-around technique in a fixed-path interferometer; for mass density: Vibrating tube method

CCCCn1cc[n+](C)c1C.[Cl-] [1-butyl-2,3-dimethylimidazolium chloride] + O
Details | mass density, 288.15 K [kg/m3] | mass density, 298.15 K [kg/m3] | mass density, 308.15 K [kg/m3] | speed of sound, 288.15 K [m/s] | speed of sound, 298.15 K [m/s] | speed of sound, 308.15 K [m/s]
m1 = 0.0354 | 999.41 | 997.296 | 994.233 | 1471.7 | 1502.4 | 1525.2
m1 = 0.0466 | 999.559 | 997.434 | 994.36 | 1480.1 | 1508.2 | 1530.4
m1 = 0.0575 | 999.712 | 997.614 | 994.516 | 1484.9 | 1512.1 | 1533
m1 = 0.0702 | 999.936 | 997.784 | 994.679 | 1489.8 | 1515.5 | 1535.5
m1 = 0.0932 | 1000.31 | 998.103 | 994.956 | 1498 | 1520.7 | 1539.2
m1 = 0.1164 | 1000.68 | 998.419 | 995.243 | 1502.9 | 1525.7 | 1543.5
m1 = 0.1401 | 1000.99 | 998.698 | 995.547 | 1505.3 | 1527.9 | 1546.4
m1 = 0.1635 | 1001.1 | 998.836 | 995.675 | 1506.4 | 1529.3 | 1547.4
m1 = 0.1862 | 1001.01 | 998.743 | 995.587 | 1507.5 | 1530.5 | 1549.1
m1 = 0.2082 | 1000.78 | 998.556 | 995.17 | 1508.2 | 1531.5 | 1550
m1 = 0.2329 | 1000.25 | 998.134 | 994.487 | 1509.1 | 1532.1 | 1550.6
